ChEMBL document CHEMBL1821642, “Discovery of 7-hydroxy-6-methoxy-2-methyl-3-(3,4,5-trimethoxybenzoyl)benzo[b]furan (BNC105), a tubulin polymerization inhibitor with potent antiproliferative and tumor vascular disrupting properties” (J Med Chem, 2011)
Active and inactive are the calls of the source. The rule behind the calls is not given here.

How the values were obtained:
HUVEC [1] = test: Antiproliferative activity against HUVEC grown in presence of growth factors after 48 hrs by spectrophotometry; type: functional, cell-based; details: Homo sapiens
HUVEC [2] = test: Antiproliferative activity against HUVEC grown in absence of growth factors after 48 hrs by spectrophotometry; type: functional, cell-based; details: Homo sapiens
HUVEC [3] = test: Selectivity ratio of IC50 for HUVEC grown in absence of growth factors to IC50 for HUVEC grown in presence of growth factors; type: functional, Homo sapiens
MCF7 = test: Antiproliferative activity against human MCF7 cells assessed after 48 hrs by spectrophotometry; type: functional, cell-based; details: MCF7, 48 h
[4] = Inhibition of tubulin polymerization by spectrophotometry
786-0 [5] = test: Antiproliferative activity against MDR-1 overexpressing human 786-0 cells; type: functional, cell-based
786-0 [6] = test: Antiproliferative activity against MDR-1 overexpressing human 786-0 cells in presence of MDR1 inhibitor verapamil; type: functional, cell-based
MDA-MB-231 [7] = test: Antitumor activity against human MDA-MB-231 xenografted in mouse assessed as tumor growth inhibition at 150 mg/kg administered on day 1 and 5; type: functional, organism-based; set-up: dose 150 mg/kg
MDA-MB-231 [8] = test: Antitumor activity against human MDA-MB-231 xenografted in mouse assessed as tumor growth inhibition at 40 mg/kg administered on day 1 and 8 measured after 70 days; type: functional, organism-based; set-up: dose 40 mg/kg
MDA-MB-231 [9] = test: Antitumor activity against human MDA-MB-231 xenografted in mouse assessed as tumor growth inhibition at 10 mg/kg administered on day 1 and 5; type: functional, organism-based; set-up: dose 10 mg/kg
[10] = Aqueous solubility of the compound; type: physicochemical; details: buffer
DU-145 = test: Antiproliferative activity against human DU145 after 48 hrs by spectrophotometry; type: functional, cell-based; details: DU-145, 48 h
Calu-6 = test: Antiproliferative activity against human Calu6 after 48 hrs by spectrophotometry; type: functional, cell-based; details: Calu-6, 48 h
A-431 = test: Antiproliferative activity against human A431 after 48 hrs by spectrophotometry; type: functional, cell-based; details: A-431, 48 h
AU565 = test: Antiproliferative activity against human AU565 after 48 hrs by spectrophotometry; type: functional, cell-based; details: AU565, 48 h
BT-549 = test: Antiproliferative activity against human BT549 after 48 hrs by spectrophotometry; type: functional, cell-based; details: BT-549, 48 h
Rattus norvegicus [11] = test: Half life in Sprague-Dawley rat at 6 umol/kg, iv; type: ADME, organism-based; details: in vivo
Rattus norvegicus [12] = test: Volume of distribution at steady state in Sprague-Dawley rat at 6 umol/kg, iv; type: ADME, organism-based; details: in vivo
Plasma = test: Plasma protein binding in Sprague-Dawley rat at 6 umol/kg, iv; type: ADME, cell-free
[13] = Antiproliferative activity against human HAAE1 grown in presence of growth factors after 48 hrs by spectrophotometry; type: functional
[14] = Antiproliferative activity against human HAAE1 grown in absence of growth factors after 48 hrs by spectrophotometry; type: functional
[15] = Antiproliferative activity against human U87MG after 48 hrs by spectrophotometry; type: functional, U-87MG ATCC; details: U-87 MG
MDA-MB-231 [16] = test: Antiproliferative activity against human MDA-MB-231 after 48 hrs by spectrophotometry; type: functional, cell-based; details: MDA-MB-231, 48 h
A-375 = test: Antiproliferative activity against human A375 after 48 hrs by spectrophotometry; type: functional, cell-based; details: A-375, 48 h
SK-OV-3 = test: Antiproliferative activity against human SKOV3 after 48 hrs by spectrophotometry; type: functional, cell-based; details: SK-OV-3, 48 h
LoVo = test: Antiproliferative activity against human LoVo after 48 hrs by spectrophotometry; type: functional, cell-based
A2780 = test: Cytotoxicity against human A2780 cells; type: functional, cell-based
[17] = Cytotoxicity against human A2780/ADR cells; type: functional, cell-based
[18] = Cytotoxicity against human A2780cis cells; type: functional, cell-based; details: A2780cisR
[19] = Drug uptake in tumor of MDA-MB-231 breast cancer BALB/c mouse model at 1 to 150 mg/kg, iv measured after 24 hrs; type: ADME, organism-based; set-up: dose 1-150 mg/kg, route intravenous; details: in vivo

COc1cc(C(=O)c2c(NCCN(C)C)oc3c(O)c(OC)ccc23)cc(OC)c1OC
IC50 (HUVEC [1]; read-out: IC50): 29 nM | IC50 (HUVEC [2]): 36 nM | Ratio IC50 (HUVEC [3]): 1.2

COc1ccc2c(C(=O)c3cc(OC)c(OC)c(OC)c3)c(N3CCN(C)CC3)oc2c1
IC50 (MCF7): 215 nM | IC50 (HUVEC [1]; read-out: IC50): 484 nM | IC50 (HUVEC [2]): 405 nM | Ratio IC50 (HUVEC [3]): 0.8

COc1ccc(-c2sccc2C(=O)c2cc(OC)c(OC)c(OC)c2)cc1O
IC50 [4]: 1000 nM

CC(=O)O[C@H]1C(=O)[C@@]2(C)[C@H]([C@H](OC(=O)c3ccccc3)[C@]3(O)C[C@H](OC(=O)[C@H](O)[C@@H](NC(=O)c4ccccc4)c4ccccc4)C(C)=C1C3(C)C)[C@]1(OC(C)=O)CO[C@@H]1C[C@@H]2O [PACLITAXEL]
IC50 (786-0 [5]): 31 nM | IC50 (786-0 [6]): 4 nM

COc1ccc2c(C(=O)c3cc(OC)c(OC)c(OC)c3)c(-c3ccc(O)cc3)oc2c1
IC50 [4]: 2300 nM | IC50 (MCF7): 48 nM | IC50 (HUVEC [1]; read-out: IC50): 30 nM | IC50 (HUVEC [2]): 34 nM | Ratio IC50 (HUVEC [3]): 1.1

COc1ccc2c(C(=O)c3cc(OC)c(OC)c(OC)c3)c(-c3ccc(OC)nc3)oc2c1
IC50 (MCF7): 71 nM | IC50 (HUVEC [1]; read-out: IC50): 45 nM | IC50 (HUVEC [2]): 27 nM | Ratio IC50 (HUVEC [3]): 0.6

COC(=O)/C=C/c1oc2c(O)c(OC)ccc2c1C(=O)c1cc(OC)c(OC)c(OC)c1
IC50 (HUVEC [1]; read-out: IC50): 0.38 nM | IC50 (HUVEC [2]): 2.3 nM | Ratio IC50 (HUVEC [3]): 6

COc1ccc(/C=C\c2cc(OC)c(OC)c(OC)c2)cc1OP(=O)(O)O
growth inhibition (GI) (MDA-MB-231 [7]): Active

COc1cc(C(=O)c2c(C)oc3c(OP(=O)([O-])[O-])c(OC)ccc23)cc(OC)c1OC.[Na+].[Na+]
growth inhibition (GI) (MDA-MB-231 [8]): Active | growth inhibition (GI) (MDA-MB-231 [9]): Active | solubility [10]: soluble

COc1cc(C(=O)c2coc3c(O)c(OC)ccc23)cc(OC)c1OC
IC50 (MCF7): 45 nM | IC50 (HUVEC [1]; read-out: IC50): 83 nM | IC50 (HUVEC [2]): 322 nM

COc1cc(C(=O)c2c(/C=C/C(N)=O)oc3c(O)c(OC)ccc23)cc(OC)c1OC
IC50 (HUVEC [1]; read-out: IC50): 2.6 nM | IC50 (HUVEC [2]): 2.3 nM | Ratio IC50 (HUVEC [3]): 0.9

COc1cc(C(=O)c2c(-c3cnn(C)c3)oc3c(O)c(OC)ccc23)cc(OC)c1OC
IC50 [4]: 1300 nM | IC50 (MCF7): 1 nM | IC50 (HUVEC [1]; read-out: IC50): 0.4 nM | IC50 (HUVEC [2]): 0.7 nM | Ratio IC50 (HUVEC [3]): 1.8

COc1ccc(/C=C\c2cc(OC)c(OC)c(OC)c2)cc1O [COMBRETASTATIN A4]
IC50 (HUVEC [1]): 3.6 nM | IC50 (HUVEC [2]): 3.9 nM | IC50 (DU-145): 4 nM | IC50 (Calu-6): 0.94 nM | IC50 (A-431): 188 nM | IC50 (AU565): 4.4 nM | IC50 (BT-549): 3.5 nM | t1/2 (Rattus norvegicus [11]): 0.7 h | Vdss (Rattus norvegicus [12]): 7.3 L/kg | PPB (Plasma): 98.9%

COc1ccc2c(C(=O)c3cc(OC)c(OC)c(OC)c3)coc2c1
IC50 [4]: 1600 nM | IC50 (MCF7): 55 nM | IC50 (HUVEC [1]; read-out: IC50): 45 nM | IC50 (HUVEC [2]): 63 nM | Ratio IC50 (HUVEC [3]): 1.4

COc1cc(C(=O)c2c(-n3cccc3)oc3c(O)c(OC)ccc23)cc(OC)c1OC
IC50 (HUVEC [2]): 3.3 nM

COc1cc(C(=O)c2c(C)oc3c(O)c(OC)ccc23)cc(OC)c1OC
IC50 [4]: 3000 nM | IC50 (MCF7): 2.4 nM | IC50 (HUVEC [1]; read-out: IC50): 0.31 nM | IC50 (HUVEC [2]): 25 nM | IC50 [13]: 0.1 nM | IC50 [14]: 12 nM | IC50 [15]: 0.41 nM | IC50 (DU-145): 0.36 nM | IC50 (Calu-6): 0.16 nM | IC50 (MDA-MB-231 [16]): 0.63 nM | IC50 (A-375): 1.5 nM | IC50 (SK-OV-3): 0.59 nM | IC50 (LoVo): 0.24 nM | IC50 (AU565): 5.8 nM | IC50 (BT-549): 0.34 nM | IC50 (A2780): 0.03 nM | IC50 [17]: 0.06 nM | IC50 [18]: 0.01 nM | t1/2 (Rattus norvegicus [11]): 3.5 h | Vdss (Rattus norvegicus [12]): 7.1 L/kg | solubility [10]: Insoluble | Drug uptake [19]: 64%

CC[C@]1(O)C[C@@H]2CN(CCc3c([nH]c4ccccc34)[C@@](C(=O)OC)(c3cc4c(cc3OC)N(C)[C@H]3[C@@](O)(C(=O)OC)[C@H](OC(C)=O)[C@]5(CC)C=CCN6CC[C@]43[C@@H]65)C2)C1 [VINBLASTINE]
IC50 (786-0 [5]): 4.5 nM | IC50 (786-0 [6]): 0.31 nM

COc1cc(C(=O)c2c(-c3cnn(C)c3)oc3c(OC(C)C)c(OC)ccc23)cc(OC)c1OC
IC50 (MCF7): 42 nM | IC50 (HUVEC [1]; read-out: IC50): 665 nM | IC50 (HUVEC [2]): 419 nM | Ratio IC50 (HUVEC [3]): 0.6

COc1ccc(-c2oc3c(O)c(OC)ccc3c2C(=O)c2cc(OC)c(OC)c(OC)c2)cc1O
IC50 [4]: 800 nM | IC50 (MCF7): 4 nM | IC50 (HUVEC [1]; read-out: IC50): 1.7 nM | IC50 (HUVEC [2]): 3.4 nM | Ratio IC50 (HUVEC [3]): 2

COc1cc(C(=O)c2c(-c3cccs3)oc3c(O)c(OC)ccc23)cc(OC)c1OC
IC50 (MCF7): 0.5 nM | IC50 (HUVEC [1]; read-out: IC50): 0.31 nM | IC50 (HUVEC [2]): 0.36 nM | Ratio IC50 (HUVEC [3]): 1.2

COc1cc(C(=O)c2c(-c3ccco3)oc3c(O)c(OC)ccc23)cc(OC)c1OC
IC50 [4]: 8700 nM | IC50 (MCF7): 0.6 nM | IC50 (HUVEC [1]; read-out: IC50): 3.6 nM | IC50 (HUVEC [2]): 3.4 nM | Ratio IC50 (HUVEC [3]): 0.9

COc1ccc2c(C(=O)c3cc(OC)c(OC)c(OC)c3)c(-c3ccc4c(ccn4C)c3)oc2c1
IC50 [4]: 1300 nM | IC50 (HUVEC [1]; read-out: IC50): 41 nM | IC50 (HUVEC [2]): 32 nM | Ratio IC50 (HUVEC [3]): 0.8

COc1cc(C(=O)c2c(NCCO)oc3c(O)c(OC)ccc23)cc(OC)c1OC
IC50 (HUVEC [1]; read-out: IC50): 3.1 nM | IC50 (HUVEC [2]): 2.9 nM | Ratio IC50 (HUVEC [3]): 0.9

COc1ccc2c(C(=O)c3cc(OC)c(OC)c(OC)c3)c(-c3ccc(OC)c(N)c3)oc2c1
IC50 [4]: 1900 nM | IC50 (MCF7): 26 nM | IC50 (HUVEC [1]; read-out: IC50): 32 nM | IC50 (HUVEC [2]): 44 nM | Ratio IC50 (HUVEC [3]): 1.4

CC[C@]1(O)C[C@H]2CN(CCc3c([nH]c4ccccc34)[C@@](C(=O)OC)(c3cc4c(cc3OC)N(C=O)[C@H]3[C@@](O)(C(=O)OC)[C@H](OC(C)=O)[C@]5(CC)C=CCN6CC[C@]43[C@@H]65)C2)C1 [VINCRISTINE]
IC50 (786-0 [5]): 37 nM | IC50 (786-0 [6]): 1.2 nM

COc1cc(C(=O)c2c(C#N)oc3c(O)c(OC)ccc23)cc(OC)c1OC
IC50 (HUVEC [1]; read-out: IC50): 1.1 nM | IC50 (HUVEC [2]): 3 nM | Ratio IC50 (HUVEC [3]): 2.7

COc1cc(C(=O)c2c(N)oc3c(O)c(OC)ccc23)cc(OC)c1OC
IC50 (HUVEC [1]; read-out: IC50): 1.9 nM | IC50 (HUVEC [2]): 8.8 nM | Ratio IC50 (HUVEC [3]): 4.6

COc1ccc2c(C(=O)c3cc(OC)c(OC)c(OC)c3)c(Br)oc2c1
IC50 (HUVEC [1]; read-out: IC50): 510 nM | IC50 (HUVEC [2]): 309 nM | Ratio IC50 (HUVEC [3]): 0.6
